We go through two compounds from paper PMC8752837, “Structural basis of BAK activation in mitochondrial apoptosis initiation” (Nature Communications, 2022).

Read-outs that look alike come from different tables or passages of the source.

Assay [1] deals with T1, Human BAK-∆TM-His6 (BAK) (Homo sapiens, UniProt Q16611).
T1 construct: C-terminus truncated recombinant human BAK containing C-terminal 6× histidine tag (MEAS-BAK); made in house; host or cells: E. coli T7 Express pLac I/Y
T1 sequence (Q16611 1-186 limits assumed): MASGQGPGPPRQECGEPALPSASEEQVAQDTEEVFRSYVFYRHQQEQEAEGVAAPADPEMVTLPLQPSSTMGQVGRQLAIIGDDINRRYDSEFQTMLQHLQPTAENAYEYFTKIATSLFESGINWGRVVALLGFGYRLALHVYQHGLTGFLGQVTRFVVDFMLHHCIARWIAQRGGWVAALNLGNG
Put plainly: Liposome permeabilization assay (ANTS/DPX dye release from LUVs): activation of WT BAK by BH3 peptides.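 On AUC for Experiment-2 (Mean): traces normalized between buffer minimum and 3% CHAPS maximum fluorescence.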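 On AUC for Experiment-3 (Mean): traces normalized between buffer minimum and 3% CHAPS maximum fluorescence.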 It counts as biochemical. Also on record: AUC for Experiment-2 (Mean) / AUC for Experiment-3 (Mean) / AUC for Experiment-1 (Mean):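 traces normalized between buffer minimum and 3% CHAPS maximum fluorescence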. The following applies: for EC50: 50 nM BAK; for activation of WT BAK in liposome permeabilization assays: BAK BH3 peptide ligands, 50 nM WT BAK receptor; for peptide concentration at which ligands activate WT BAK / lowest dose at which permeabilization is observed: liposome permeabilization; for peptide concentration at which ligands activate WT BAK: Suppl. Figs. 3e, 4d, e; for lowest dose at which permeabilization is observed: robust across experiments; for AUC for Experiment-1 (Mean) / AUC for Experiment-2 (Mean) / AUC for Experiment-3 (Mean): AUC 0-88 mins of liposome permeabilization; for AUC for Experiment-1 (Mean): Experiment-1, mean of N replicates; for AUC for Experiment-2 (Mean): Experiment-2, mean of N replicates; for AUC for Experiment-3 (Mean): Experiment-3, mean of N replicates.

The target in assay [2] is T2, MEAS-BAK-His6 (Homo sapiens, UniProt Q16611).
T2 construct: C-terminus truncated recombinant human BAK containing C-terminal 6× histidine tag (MEAS-BAK); made in house; host or cells: E. coli T7 Express pLac I/Y
T2 sequence (Q16611 1-186 limits assumed): T1 sequence (Q16611 1-186 limits assumed)
Put plainly: Surface plasmon resonance. The conditions noted are these: 20 °C; for Kd: MEAS-BAK-His6 captured on Ni-NTA HisCap chip, three-fold peptide dilution series injected in triplicate, read-out: SPR KD. The assay is classed as binding. Here is the method: We conducted SPR experiments at 20 °C using a Pioneer FE optical biosensor (ForteBio) amd histidine-tagged MEAS-BAK-His6 immobilized on polycarboxylate hydrogel-coated gold chips preimmobilized with nitrilotriacetic acid (HisCap chips; ForteBio). We primed the chip in chelating buffer (10 mM HEPES pH 7.4, 150 mM NaCl, 50 µM EDTA, 0.005% Tween20) and preconditioned it at 10 µL/min with three 60 s injections of wash buffer (10 mM HEPES pH 8.3, 150 mM NaCl, 350 mM EDTA, 0.05% Tween20) and one 60 s injection of chelating buffer before charging with a 60 s injection of 500 µM NiCl2 in chelating buffer. After priming into binding buffer (20 mM HEPES pH 8.0, 200 mM NaCl, 1 mM TCEP, 0.01% Tween20), we injected BAK to achieve ~500 RU of captured protein. As reference cell, we charged one flow cell on the chip with Ni^2+ without adding protein. […] We included a series of buffer-only (blank) injections throughout the experiment to account for instrumental noise. […] We processed, double-referenced, solvent corrected, and analyzed the data using the software package Qdat (version 4.3.1.2, ForteBio). We determined kinetic rate constants and affinities by fitting the data to a 1:1 interaction model.

In assay [3] the test system is V74A(1) BAK. The assay can be described thus: Liposome permeabilization assay: BH3 peptide activation of V74A(1) BAK receptor. It counts as biochemical, human. The following applies: Suppl. Figs. 3e, 4d. As for the experimental part:
We performed liposome permeabilization assays as previously described[43]-[46]. […] We mixed the lipid film in ANTS/DPX solution by vortexing and sonication (~15 min) followed by extrusion through polycarbonate membrane of 2 μm pore size (Avanti Polar lipids) to generate homogenous large unilamellar vesicles (LUVs). We separated LUVs from free ANTS/DPX by S500 size exclusion chromatography and stored them at 4 °C in the dark. We prepared peptide and protein dilutions in 96-well black flat bottom plates (Costar) kept on ice. […] We quantified liposome permabilization by integrating area under curve (AUC) of normalized traces based on the Simpson's equation, and analyzed that data in Excel and GraphPad Prism. AUC measurements reflect the kinetic and extent of liposome permeabilization and provide quantitative means for comparison between different experimental conditions (e.g., BAK mutants with gross or partial variation in activity). Variability in permeabilization of different liposomes is common and our analyses compare among conditions investigated with the same liposomes. Although the absolute permeabilization values may differ, the trends for the same conditions are always very similar between different liposomes.

Assay [4] has as its target T3, I81R BAK (Homo sapiens, UniProt Q16611, I81R).
T3 construct: To generate tevBAK (residues 22–186), we cleaved off the histidine tag with TEV protease; His tag (vector pNIC28-Bsa4) (N, cleaved yes); made in house; host or cells: E. coli T7 Express pLac I/Y
T3 sequence (Q16611 22-186 I81R): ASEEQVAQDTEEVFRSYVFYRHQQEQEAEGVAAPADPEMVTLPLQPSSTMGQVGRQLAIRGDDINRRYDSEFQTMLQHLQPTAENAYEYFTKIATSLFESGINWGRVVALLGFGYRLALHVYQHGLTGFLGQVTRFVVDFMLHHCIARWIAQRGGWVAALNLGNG
The assay can be described thus: Isothermal titration calorimetry with mutant BAK. The assay is classed as binding. The following applies: KD could not be obtained by ITC or SPR. Here is the method: Protein samples were exchanged into 20 mM HEPES, 100 mM NaCl and 1 mM TCEP prior to the experiment. Titrations were performed by first injecting 0.5 μl of 250 or 500 µM BID BH3 peptides into a solution of 20 or 50 µM BAK followed by additional 2 μl injections. […] Results were analyzed using Origin software (OriginLab) provided by MicroCal. Binding constants (KD) and thermodynamic parameters were calculated from the average of two or three individual titrations by fitting the data to a single site binding model using a nonlinear least-squares fitting algorithm.

As for `CC[C@H](C)[C@H](NC(=O)[C@H](C)NC(=O)[C@H](CC(C)C)NC(=O)[C@H](CCC(N)=O)NC(=O)[C@H](CCCNC(=N)N)NC(=O)CNC(=O)[C@@H](NC(=O)[C@H](CCC(N)=O)NC(=O)CNC(=O)[C@H](CCSC)NC(=O)[C@@H](NC(=O)[C@H](CO)NC(=O)[C@H](CO)NC(C)=O)[C@@H](C)O)C(C)C)C(=O)N[C@H](C(=O)NCC(=O)N[C@@H](CC(=O)O)C(=O)N[C@@H](CC(=O)O)C(=O)N[C@H](C(=O)N[C@@H](CC(N)=O)C(=O)N[C@@H](CCCNC(=N)N)C(=O)N[C@@H](CCCNC(=N)N)C(=O)N[C@@H](Cc1ccc(O)cc1)C(N)=O)[C@@H](C)CC)[C@@H](C)CC` [WT BAK BH3], the concentration for a half-maximal effect (EC50) in assay [1] (EC50 from AUC vs peptide dose, data in Supplementary Figure 4b, 37 °C, 90 min, read-out: Liposome permeabilization EC50) amounted to 35.8 ± 30.4 nM. Besides, in assay [1] (peer review file, read-out: EC50 analysis of liposome permeabilization (rebuttal, earlier manuscript version)), the concentration giving a half-maximal response (EC50) fell in the range of 50 to 200 nM. For the same compound, in assay [1], the “activation of WT BAK in liposome permeabilization assays” value is “activates BAK in liposome permeabilization assays similarly to BID BH3”, the “peptide concentration at which ligands activate WT BAK” value is “above 1 µM” and the “lowest dose at which permeabilization is observed” value turned out to be 0.1 µM. In addition, the “activation of WT BAK in liposome permeabilization assays” value in assay [1] (listed as WT BAK BH3 peptide) is “potently activate WT BAK”. Moreover, the Kd in assay [2] (1:1 interaction model) stood at 67 µM. The “peptide concentration at which ligands activate V74A(1) BAK” value in assay [3] is listed as “above 1 µM”. In addition, the “affinity for I81R BAK extrapolated by applying 2-fold difference compared to WT” value in assay [4] is ~ 130 µM.

As to `CC[C@H](C)[C@H](NC(=O)[C@H](CO)NC(=O)[C@H](CCCNC(=N)N)NC(=O)[C@H](CC(=O)O)NC(=O)[C@H](CCSC)NC(=O)[C@H](CO)NC(=O)[C@H](CC(=O)O)NC(=O)CNC(=O)[C@@H](NC(=O)[C@H](CCC(N)=O)NC(=O)[C@H](C)NC(=O)[C@H](CC(C)C)NC(=O)[C@H](Cc1c[nH]cn1)NC(=O)[C@H](CCCNC(=N)N)NC(=O)[C@H](C)NC(=O)[C@@H](NC(=O)[C@H](CC(N)=O)NC(=O)[C@H](CCCNC(=N)N)NC(=O)[C@@H](NC(=O)[C@@H](NC(=O)[C@H](CC(=O)O)NC(=O)[C@H](CCC(=O)O)NC(C)=O)[C@@H](C)CC)[C@@H](C)CC)[C@@H](C)CC)C(C)C)C(N)=O` [WT BID BH3, reference compound], the 50% effective concentration (EC50) in assay [1] (EC50 from AUC vs peptide dose, data in Supplementary Figure 7c, 37 °C, 90 min, read-out: Liposome permeabilization EC50) is 59 ± 12 nM. In assay [1] (1 μM peptide + 50 nM BAK), the “AUC for Experiment-1 (Mean)” value was 17.777, the “AUC for Experiment-2 (Mean)” value is 10.071 and the “AUC for Experiment-3 (Mean)” value is 10.975. In assay [1] (50 μM peptide + 50 nM BAK), the “AUC for Experiment-1 (Mean)” value is reported as 14.842, the “AUC for Experiment-2 (Mean)” value was determined as 13.692 and the “AUC for Experiment-3 (Mean)” value is recorded as 17.854. Besides, in assay [1], the “peptide concentration at which ligands activate WT BAK” value was “above 1 µM” and the “lowest dose at which permeabilization is observed” value is 1 µM. Besides, in assay [2] (1:1 interaction model), the SPR kd is on record as 2.61±0.01 ×10-1 s-1 and the dissociation constant Kd turned out to be 62.3 ± 0.4 µM. In addition, the kon in assay [2] (1:1 interaction model, read-out: SPR ka) was 4190 ± 20 M⁻¹ s⁻¹. Also, the “SPR Rmax” value in assay [2] (~500 RU captured BAK) is reported as 26.2±0.1 RU. Besides, the “peptide concentration at which ligands activate V74A(1) BAK” value in assay [3] is reported as “above 1 µM”. For the same compound, the “affinity for I81R BAK extrapolated by applying 2-fold difference compared to WT” value in assay [4] is ~ 130 µM.
